The text below walks through data of patent US20240197700A1, “Methods and Compositions for Treating Lysosomal Storage Disorders” (Sanford Health, priority 2021, published 2024).

The subject of this assay is Cln3^Δex7/8 mice. Briefly: SubC burden (immunohistochemistry) in brain of Cln3^Δex7/8 mice. It is filed as in vivo, mouse. How it is done: Specific experimental details are included in figure legends. In general, after collection and preparation, MEFs and PNCs were dosed with vehicle or AF38469 (40 nM, 400 nM. or 4 μM) on DIV3 and DIV5. On DIV7, cells were treated with the following dyes: Hoechst 33342 (1:1000 dilution), LysoTrackerT™ Red DND-99 (1:10,000 dilution), fixed, and imaged. Mice were given vehicle or AF38469 (78.125 μg/ml, 3.125 μg/ml, 0.3125 μg/ml or 0.03125 μg/ml equating approximately to 250 μg/mouse/day, 10 μg/mouse/day, 1 μg/mouse/day, and […], respectively, given a mouse's daily water intake of approximately 3.2 ml per day) in drinking water beginning at wean. Body weight was measured bi-weekly, and a force actimeter test was performed on Cln2^R207X mice at 10 weeks of age. Body weight was measured every month for Cln3^Δex7/8 mice. At 11 and 16 weeks of age, respectively, Cln2^R207X and Cln3^Δex7/8 mice along with age matched wild type control mice were CO2 euthanized and intracardially perfused with PBS. Brains were collected and placed on a 1 mm sagittal brain block. Brains were sliced at the midline and 3 mm right of the midline. One hemisphere was fixed in 4% PFA and sectioned at 50 microns on a vibratome. Immunohistochemistry was performed on free-floating sections. For mitochondrial ATP synthase subunit C (SubC), glial fibrillary acidic protein (GFAP), and cluster of differentiation 68 (CD68) immunolabeling, primary antibodies included anti-SubC (Abcam, ab181243; 1:1000), anti-GFAP (Dako, Z0334; 1:5000), anti-CD68 (AbD Serotec, MCA1957; 1:2000), and secondary antibodies included anti-rabbit biotinylated (Vector Labs, BA-1000 1:1000) and anti-rat (Vector Labs, BA-9400 1:1000). Coverslips were mounted on slides using antifade-mounting media and were stored in the dark before imaging. Sections were imaged and analyzed using an Aperio Digital Pathology Slide Scanner (AT2) and associated software. Images were extracted from S1BF of the somatosensory cortex and the VPM/VPL of the thalamus, with multiple images taken of multiple tissues from each animal.
Short-term chronic treatment with AF38469 reduces storage material burden in Cln2^R207X and Cln3^Δex7/8 mice. Beginning at wean, wild type and Cln2^R207X mice were treated with vehicle (0.2408% DMSO) or AF38469 (0.03125 μg/ml, 0.3125 μg/ml, 3.125 μg/ml, 78.125 μg/ml) continuously through the drinking water continuing until sacrifice at 11 weeks. Beginning at wean, wild type and Cln3^Δex7/8 mice were treated with vehicle (0.2408% DMSO) or AF38469 (0.03125 μg/ml, 0.3125 μg/ml, 3.125 μg/ml, 78.125 μg/ml) continuously through the drinking water until sacrifice at 16 weeks. Upon sacrifice, one hemisphere of brain was sectioned at 50 microns on a vibratome; DAB staining immunohistochemistry was then performed using anti-SubC (Abcam, ab181243) anti-rabbit biotinylated (Vector Labs, BA-1000). Sections were imaged and analyzed using an Aperio Digital Pathology Slide Scanner (AT2) and associated software. Images were extracted from S1BF of the somatosensory cortex and the VPM/VPL of the thalamus, key brain regions for Batten disease pathology. Percent area of immunoreactivity were quantified using a threshold analysis in ImageJ™. Statistical analyses were performed using GraphPad Prism™ (v8.4.3; San Diego, CA). […] Increasing concentrations of AF38469 and corresponding genotypes are shown along the x-axis. Nested one-way ANOVA. […]

Each structure is given as a SMILES string. “Also recorded” adds a separate entry of the source.

As for `CC[C@H](C)[C@H](N)C(=O)NCCN1CCOCC1` [LM11A-31, N-[2-(morpholin-4-yl)ethyl]-L-isoleucinamide], where the note is “LM11A-31 0.6 mg/mL, VPM/VPL of the thalamus”, the SubC burden entry is recorded as “decrease; also recorded: decreasing trend”. In addition, the “Subunit C burden” value (LM11A-31 0.6 mg/mL, somatosensory cortex (S1BF)) is reported as “increase; also recorded: did not significantly decreased”.
With `Cc1cccc(NC(=O)c2ccc(C(F)(F)F)cc2C(=O)O)n1` [AF38469, 2-((6-methylpyridin-2-yl)carbamoyl)-5-(trifluoromethyl)benzoic acid], the “Subunit C burden” value (0.03125 μg/ml, 0.3125 μg/ml in drinking water, somatosensory cortex and VPM/VPL of the thalamus, 16 weeks) is listed as “significantly decreased”; the “Subunit C burden” value (3.125 μg/ml in drinking water, somatosensory cortex and VPM/VPL of the thalamus, 16 weeks) is recorded as “significantly decreased”; the “Subunit C burden” value (3.125 μg/ml, 78.125 μg/ml in drinking water, somatosensory cortex, 16 weeks) is “significantly decreased”.
